Here are results for 6 compounds from ChEMBL document CHEMBL4190237, “Recent developments in biological activities of indanones” (Eur J Med Chem, 2017).

For one experiment, the system named is K562. As to the kind of experiment: Cytotoxicity against human K562 cells. The experiment is classed as functional, cell-based.
In a further experiment the test system is HeLa. As to the kind of experiment: Cytotoxicity against human HeLa cells. The format is functional, cell-based.
The test system of experiment [1] is Bovine viral diarrhea virus 1. As to the kind of experiment: Antiviral activity against BVDV infected in MDBK cells assessed as protection against virus-induced cytopathic effect after 3 days by MTS/PMS assay. The experiment is classed as functional, organism-based. The conditions noted are these: Bovine viral diarrhea virus isolates and strains, 72 h. A general note: Protection from cytopathic effect is a common read-out in antiviral testing.

A further experiment relates to Candida albicans. The experiment is described as follows: Antifungal activity against Candida albicans MTCC 227 assessed as zone of inhibition at 50 mg/ml after 24 hrs by agar disc-diffusion method. The experiment is classed as functional. The conditions noted are these: MTCC 227, 24 h, read-out: IZ. (In general: A growth-free zone around the sample is the usual read-out of agar diffusion tests.)

The test system of another experiment is Klebsiella pneumoniae. As to the kind of experiment: Antibacterial activity against Klebsiella pneumoniae assessed as growth inhibition. The format is functional.
The next experiment addresses Acetylcholinesterase (Electrophorus electricus, UniProt O42275). As to the kind of experiment: Inhibition of electric eel AChE using acetylthiocholine iodide as substrate after 1 min by Ellman's method. A general note: DTNB colorimetry detects thiols as they appear.
The next experiment concerns Jurkat. As to the kind of experiment: Cytotoxicity against human Jurkat cells assessed as cell growth inhibition by MTT assay. The experiment is classed as functional, cell-based.

Sequence of Acetylcholinesterase (O42275 whole entry): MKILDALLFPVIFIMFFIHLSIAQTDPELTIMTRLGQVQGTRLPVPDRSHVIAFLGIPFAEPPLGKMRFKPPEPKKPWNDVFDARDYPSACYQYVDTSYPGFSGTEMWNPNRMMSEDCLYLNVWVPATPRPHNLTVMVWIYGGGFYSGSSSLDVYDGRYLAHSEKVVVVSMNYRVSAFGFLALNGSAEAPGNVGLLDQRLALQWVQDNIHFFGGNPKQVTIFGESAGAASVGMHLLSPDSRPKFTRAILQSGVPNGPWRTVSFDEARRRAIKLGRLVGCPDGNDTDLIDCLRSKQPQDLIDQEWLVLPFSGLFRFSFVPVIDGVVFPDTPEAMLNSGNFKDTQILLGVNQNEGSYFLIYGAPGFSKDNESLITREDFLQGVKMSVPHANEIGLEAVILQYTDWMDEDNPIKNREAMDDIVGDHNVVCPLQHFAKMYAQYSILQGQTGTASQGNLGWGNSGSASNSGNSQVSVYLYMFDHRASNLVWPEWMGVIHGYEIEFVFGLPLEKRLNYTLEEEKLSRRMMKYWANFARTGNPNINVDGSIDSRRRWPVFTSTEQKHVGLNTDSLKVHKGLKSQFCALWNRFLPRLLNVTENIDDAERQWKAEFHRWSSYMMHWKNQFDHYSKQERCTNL

With `COc1cc(OC)c2c(c1)C(=O)CC2c1ccc(Br)cc1` (configuration not stated), the figures for the half-inhibitory concentration (IC50) in the experiment with K562 and in the experiment with HeLa were 10 µM and 60 µM, respectively.
Take `COc1cc2c(cc1OC)/C(=N/NC(N)=S)CC2`: the EC50 (as a rule, the concentration giving half of the maximal effect) in experiment [1] was determined as 5.35 µM.
In the case of `COc1cccc(-c2c(C#N)c(N)n(/N=C3\CCc4cc(OC)c(OC)cc43)c(=O)c2C#N)c1`, the zone of inhibition at 50000 µg/mL with Candida albicans was 23 mm.
For `COc1cc2c(cc1OC)C(=O)/C(=C/c1cccc(/C=C/c3ccc4ccc(Cl)cc4n3)c1)C2`, in the experiment with Klebsiella pneumoniae, the “growth inhibition (GI)” value is 11.23%.
With `NNc1ccc(C(=O)NCCCCCOc2ccc3c(c2)CC(CN2CCC(Cc4ccccc4)CC2)C3=O)cn1` (configuration not stated), it took 1.09 µM to reach half-maximal inhibition at Acetylcholinesterase (IC50).
As to `COc1cc2c(c(N)c1OC)C/C(=C\c1cc(C)c(O)c(C)c1)C2=O`, in the experiment on Jurkat, the concentration for half-maximal inhibition (IC50) (as a rule, the point on the concentration scale where inhibition reaches its midpoint) turned out to be 0.001 µM.
